{"source": "patent US20070128217A1", "about": "(priority 2003, published 2007)", "key": {"[1]": {"tested_on": "control sera (pooled serum of ten healthy LUMC hospital workers; commercial negative donor pooled serum from the Dutch bloodbank)", "assay_type": "binding, human", "parameters": "Binding of Control serum LUMC to linear peptides / Binding of Control serum Blood-bank to linear peptides / Binding of Control serum LUMC to looped peptides / Binding of Control Serum Blood-Bank to Looped peptides / Binding of Control serum LUMC to linear peptides of the protein M of SARS-CoV Urbani / Binding of Control serum Blood-bank to linear peptides of the protein M of SARS-CoV Urbani / Binding of Control serum LUMC to looped peptides of the protein M of SARS-CoV Urbani / Binding of Control Serum Blood-Bank to Looped peptides of the protein M of SARS-CoV Urbani: unit not given here"}, "[2]": {"tested_on": "antibodies in sera from SARS patients (sera 1a, 1b, 2, 6, 37, 62, London, SARS-yellow, SARS-green)", "assay_type": "binding, human", "parameters": "Binding of serum 6 to linear peptides of protein X1 of SARS-CoV Urbani / Binding of serum 37 to linear peptides of protein X1 of SARS-CoV Urbani / Binding of serum 6 to looped/cyclic peptide (PEPSCAN-ELISA) / Binding of serum 37 to looped/cyclic peptide (PEPSCAN-ELISA) / Binding of serum 37 to looped/cyclic peptides of protein X1 of SARS-CoV Urbani / Binding of serum 6 to linear peptides of protein X2 / Binding of serum 37 to linear peptides of protein X2 / Binding of serum 37 to looped/cyclic peptides of protein X2 of SARS-CoV Urbani / Binding of serum 6 to linear peptides of protein M of SARS-CoV Urbani / Binding of serum 37 to linear peptides of protein M of SARS-CoV Urbani / Binding of serum 6 to looped/cyclic peptides of protein M of SARS-CoV Urbani / Binding of serum 37 to looped/cyclic peptides of protein M of SARS-CoV Urbani / Binding of serum 6 to linear peptides of protein X3 of SARS-CoV Urbani / Binding of serum 37 to linear peptides of protein X3 of SARS-CoV Urbani / Binding of serum 37 to looped/cyclic peptides of protein X3 of SARS-CoV Urbani / Binding of serum 6 to linear peptides of protein X4 of SARS-CoV Urbani / Binding of serum 37 to linear peptides of protein X4 of SARS-CoV Urbani / Binding of serum 37 to looped/cyclic peptides of protein X4 of SARS-CoV Urbani / Binding of serum 6 to linear peptides of protein X5 of SARS-CoV Urbani / Binding of serum 37 to linear peptides of protein X5 of SARS-CoV Urbani / Binding of serum 37 to looped/cyclic peptides of protein X5 of SARS-CoV Urbani / Binding of serum 6 to linear peptides of protein N of SARS-CoV Urbani / Binding of serum 37 to linear peptides of protein N of SARS-CoV Urbani / Binding of serum 6 to linear peptide (PEPSCAN-ELISA) / Binding of serum 1a to looped/cyclic peptides of protein N of SARS-CoV Urbani / Binding of serum 1b to looped/cyclic peptides of protein N of SARS-CoV Urbani / Binding of serum 2 to looped/cyclic peptides of protein N of SARS-CoV Urbani / Binding of serum 6 to looped/cyclic peptides of protein N of SARS-CoV Urbani / Binding of serum 37 to looped/cyclic peptides of protein N of SARS-CoV Urbani / Binding of serum 62 to looped/cyclic peptides of protein N of SARS-CoV Urbani / Binding of serum London to looped/cyclic peptides of protein N of SARS-CoV Urbani / Binding of serum SARS-green to looped/cyclic peptides of protein N of SARS-CoV Urbani: unit not given here"}, "[3]": {"tested_on": "rabbit serum obtained by immunizing a rabbit with the SARS-CoV strain Frankfurt 1", "assay_type": "binding", "parameters": "Binding of a rabbit serum to linear peptides / Binding of a rabbit serum to looped peptides / Rabbit serum linear peptides / Rabbit serum looped peptides / Binding of a rabbit serum to linear peptides of protein N of SARS-CoV Urbani (Rabbit serum linear peptides) / Binding of a rabbit serum to looped/cyclic peptides of protein N of SARS-CoV Urbani (Rabbit serum looped peptides): unit not given here"}}}
{"sequence": "CALGKVLPFHRWHTM", "values": [{"measurement": "Binding of Control Serum Blood-Bank to Looped peptides", "setting": "[1]", "value": 0.4}, {"measurement": "Binding of Control serum Blood-bank to linear peptides", "setting": "[1]", "value": 0.8}, {"measurement": "Binding of Control serum LUMC to linear peptides", "setting": "[1]", "value": 0.7}, {"measurement": "Binding of Control serum LUMC to looped peptides", "setting": "[1]", "value": 0.6}, {"measurement": "Binding of serum 1a to linear peptides of protein X5 of SARS-CoV Urbani", "setting": "[2]", "value": 0.7}, {"measurement": "Binding of serum 1a to looped/cyclic peptides of protein X5 of SARS-CoV Urbani", "setting": "[2]", "value": 0.4}, {"measurement": "Binding of serum 1b to linear peptides of protein X5 of SARS-CoV Urbani", "setting": "[2]", "value": 0.5}, {"measurement": "Binding of serum 1b to looped/cyclic peptides of protein X5 of SARS-CoV Urbani", "setting": "[2]", "value": 0.2}, {"measurement": "Binding of serum 2 to linear peptides of protein X5 of SARS-CoV Urbani", "setting": "[2]", "value": 0.7}, {"measurement": "Binding of serum 2 to looped/cyclic peptides of protein X5 of SARS-CoV Urbani", "setting": "[2]", "value": 0.6}, {"measurement": "Binding of serum 6 to linear peptides of protein X5 of SARS-CoV Urbani", "setting": "[2]", "value": 0.7}, {"measurement": "Binding of serum 6 to looped/cyclic peptides of protein X5 of SARS-CoV Urbani", "setting": "[2]", "value": 0.4}, {"measurement": "Binding of serum 37 to linear peptides of protein X5 of SARS-CoV Urbani", "setting": "[2]", "value": 0.8}, {"measurement": "Binding of serum 37 to looped/cyclic peptides of protein X5 of SARS-CoV Urbani", "setting": "[2]", "value": 0.5}, {"measurement": "Binding of serum 62 to linear peptides of protein X5 of SARS-CoV Urbani", "setting": "[2]", "value": 0.7}, {"measurement": "Binding of serum 62 to looped/cyclic peptides of protein X5 of SARS-CoV Urbani", "setting": "[2]", "value": 0.3}, {"measurement": "Binding of serum London to linear peptides of protein X5 of SARS-CoV Urbani", "setting": "[2]", "value": 0.7}, {"measurement": "Binding of serum London to looped/cyclic peptides of protein X5 of SARS-CoV Urbani", "setting": "[2]", "value": 0.2}, {"measurement": "Binding of serum SARS-green to linear peptides of protein X5 of SARS-CoV Urbani", "setting": "[2]", "value": 0.7}, {"measurement": "Binding of serum SARS-green to looped/cyclic peptides of protein X5 of SARS-CoV Urbani", "setting": "[2]", "value": 0.4}, {"measurement": "Binding of serum SARS-yellow to linear peptides of protein X5 of SARS-CoV Urbani", "setting": "[2]", "value": 0.1}, {"measurement": "Binding of serum SARS-yellow to looped/cyclic peptides of protein X5 of SARS-CoV Urbani", "setting": "[2]", "value": 0.4}, {"measurement": "Rabbit serum linear peptides", "setting": "[3]", "value": 0.6}, {"measurement": "Rabbit serum looped peptides", "setting": "[3]", "value": 1.0}]}
{"sequence": "CELYHYQECVRGTTV", "values": [{"measurement": "Binding of Control Serum Blood-Bank to Looped peptides", "setting": "[1]", "value": 0.5}, {"measurement": "Binding of Control serum Blood-bank to linear peptides", "setting": "[1]", "value": 0.5}, {"measurement": "Binding of Control serum LUMC to linear peptides", "setting": "[1]", "value": 0.5}, {"measurement": "Binding of Control serum LUMC to looped peptides", "setting": "[1]", "value": 0.6}, {"measurement": "Binding of serum 1a to linear peptides of protein X4 of SARS-CoV Urbani", "setting": "[2]", "value": 0.8}, {"measurement": "Binding of serum 1a to looped/cyclic peptides of protein X4 of SARS-CoV Urbani", "setting": "[2]", "value": 0.8}, {"measurement": "Binding of serum 1b to linear peptides of protein X4 of SARS-CoV Urbani", "setting": "[2]", "value": 0.7}, {"measurement": "Binding of serum 1b to looped/cyclic peptides of protein X4 of SARS-CoV Urbani", "setting": "[2]", "value": 0.4}, {"measurement": "Binding of serum 2 to linear peptides of protein X4 of SARS-CoV Urbani", "setting": "[2]", "value": 0.5}, {"measurement": "Binding of serum 2 to looped/cyclic peptides of protein X4 of SARS-CoV Urbani", "setting": "[2]", "value": 0.8}, {"measurement": "Binding of serum 6 to linear peptides of protein X4 of SARS-CoV Urbani", "setting": "[2]", "value": 0.6}, {"measurement": "Binding of serum 6 to looped/cyclic peptides of protein X4 of SARS-CoV Urbani", "setting": "[2]", "value": 0.5}, {"measurement": "Binding of serum 37 to linear peptides of protein X4 of SARS-CoV Urbani", "setting": "[2]", "value": 0.9}, {"measurement": "Binding of serum 37 to looped/cyclic peptides of protein X4 of SARS-CoV Urbani", "setting": "[2]", "value": 0.8}, {"measurement": "Binding of serum 62 to linear peptides of protein X4 of SARS-CoV Urbani", "setting": "[2]", "value": 0.8}, {"measurement": "Binding of serum 62 to looped/cyclic peptides of protein X4 of SARS-CoV Urbani", "setting": "[2]", "value": 0.6}, {"measurement": "Binding of serum London to linear peptides of protein X4 of SARS-CoV Urbani", "setting": "[2]", "value": 0.9}, {"measurement": "Binding of serum London to looped/cyclic peptides of protein X4 of SARS-CoV Urbani", "setting": "[2]", "value": 0.3}, {"measurement": "Binding of serum SARS-green to linear peptides of protein X4 of SARS-CoV Urbani", "setting": "[2]", "value": 0.7}, {"measurement": "Binding of serum SARS-green to looped/cyclic peptides of protein X4 of SARS-CoV Urbani", "setting": "[2]", "value": 0.2}, {"measurement": "Binding of serum SARS-yellow to linear peptides of protein X4 of SARS-CoV Urbani", "setting": "[2]", "value": 0.6}, {"measurement": "Binding of serum SARS-yellow to looped/cyclic peptides of protein X4 of SARS-CoV Urbani", "setting": "[2]", "value": 0.4}, {"measurement": "Rabbit serum linear peptides", "setting": "[3]", "value": 0.4}, {"measurement": "Rabbit serum looped peptides", "setting": "[3]", "value": 0.2}]}
